Data reported in PubChem BioAssay AID1259407 (Chemical Carcinogenesis Research Information System (CCRIS), 2018).
Activity calls are given as the source filed them. No rule for the calls is given here.

Test system: CCRIS mutagenicity, Ames/micronucleus/aberration tests
Assay: CCRIS mutagenicity studies

Oc1c(I)cc(Cl)c2cccnc12
mutagenic call (Test System: AMES SALMONELLA TYPHIMURIUM, Strain/Indicator: TA97, Metabolic Activation: HAMSTER, LIVER, S-9, AROCLOR 1254 (10%), Method: PREINCUBATION): inactive; negative
mutagenic call (Test System: AMES SALMONELLA TYPHIMURIUM, Strain/Indicator: TA97, Metabolic Activation: HAMSTER, LIVER, S-9, AROCLOR 1254 (30%), Method: PREINCUBATION): inactive; negative
mutagenic call (Test System: AMES SALMONELLA TYPHIMURIUM, Strain/Indicator: TA97, Metabolic Activation: NONE, Method: PREINCUBATION): inactive; negative
mutagenic call (Test System: AMES SALMONELLA TYPHIMURIUM, Strain/Indicator: TA97, Metabolic Activation: RAT, LIVER, S-9, AROCLOR 1254 (10%), Method: PREINCUBATION): inactive; negative
mutagenic call (Test System: AMES SALMONELLA TYPHIMURIUM, Strain/Indicator: TA97, Metabolic Activation: RAT, LIVER, S-9, AROCLOR 1254 (30%), Method: PREINCUBATION): inactive; negative
mutagenic call (Test System: AMES SALMONELLA TYPHIMURIUM, Strain/Indicator: TA98, Metabolic Activation: HAMSTER, LIVER, S-9, AROCLOR 1254 (10%), Method: PREINCUBATION): inactive; negative
mutagenic call (Test System: AMES SALMONELLA TYPHIMURIUM, Strain/Indicator: TA98, Metabolic Activation: HAMSTER, LIVER, S-9, AROCLOR 1254 (30%), Method: PREINCUBATION): inactive; negative
mutagenic call (Test System: AMES SALMONELLA TYPHIMURIUM, Strain/Indicator: TA98, Metabolic Activation: NONE, Method: PREINCUBATION): inactive; negative
mutagenic call (Test System: AMES SALMONELLA TYPHIMURIUM, Strain/Indicator: TA98, Metabolic Activation: RAT, LIVER, S-9, AROCLOR 1254 (10%), Method: PREINCUBATION): inactive; negative
mutagenic call (Test System: AMES SALMONELLA TYPHIMURIUM, Strain/Indicator: TA98, Metabolic Activation: RAT, LIVER, S-9, AROCLOR 1254 (30%), Method: PREINCUBATION): inactive; negative
mutagenic call (Test System: AMES SALMONELLA TYPHIMURIUM, Strain/Indicator: TA100, Metabolic Activation: HAMSTER, LIVER, S-9, AROCLOR 1254 (10%), Method: PREINCUBATION): inactive; negative
mutagenic call (Test System: AMES SALMONELLA TYPHIMURIUM, Strain/Indicator: TA100, Metabolic Activation: HAMSTER, LIVER, S-9, AROCLOR 1254 (30%), Method: PREINCUBATION): inactive; negative
mutagenic call (Test System: AMES SALMONELLA TYPHIMURIUM, Strain/Indicator: TA100, Metabolic Activation: NONE, Method: PREINCUBATION): inactive; negative
mutagenic call (Test System: AMES SALMONELLA TYPHIMURIUM, Strain/Indicator: TA100, Metabolic Activation: RAT, LIVER, S-9, AROCLOR 1254 (10%), Method: PREINCUBATION): inactive; negative
mutagenic call (Test System: AMES SALMONELLA TYPHIMURIUM, Strain/Indicator: TA100, Metabolic Activation: RAT, LIVER, S-9, AROCLOR 1254 (30%), Method: PREINCUBATION): inactive; negative
mutagenic call (Test System: AMES SALMONELLA TYPHIMURIUM, Strain/Indicator: TA1535, Metabolic Activation: HAMSTER, LIVER, S-9, AROCLOR 1254 (10%), Method: PREINCUBATION): inactive; negative
mutagenic call (Test System: AMES SALMONELLA TYPHIMURIUM, Strain/Indicator: TA1535, Metabolic Activation: HAMSTER, LIVER, S-9, AROCLOR 1254 (30%), Method: PREINCUBATION): inactive; negative
mutagenic call (Test System: AMES SALMONELLA TYPHIMURIUM, Strain/Indicator: TA1535, Metabolic Activation: NONE, Method: PREINCUBATION): inactive; negative
mutagenic call (Test System: AMES SALMONELLA TYPHIMURIUM, Strain/Indicator: TA1535, Metabolic Activation: RAT, LIVER, S-9, AROCLOR 1254 (10%), Method: PREINCUBATION): inactive; negative
mutagenic call (Test System: AMES SALMONELLA TYPHIMURIUM, Strain/Indicator: TA1535, Metabolic Activation: RAT, LIVER, S-9, AROCLOR 1254 (30%), Method: PREINCUBATION): inactive; negative
mutagenic call (Test System: AMES SALMONELLA TYPHIMURIUM, Strain/Indicator: TA1537, Metabolic Activation: HAMSTER, LIVER, S-9, AROCLOR 1254 (30%), Method: PREINCUBATION): inactive; negative
mutagenic call (Test System: AMES SALMONELLA TYPHIMURIUM, Strain/Indicator: TA1537, Metabolic Activation: NONE, Method: PREINCUBATION): inactive; negative
mutagenic call (Test System: AMES SALMONELLA TYPHIMURIUM, Strain/Indicator: TA1537, Metabolic Activation: RAT, LIVER, S-9, AROCLOR 1254 (30%), Method: PREINCUBATION): inactive; negative

CN(C)c1ccc(CCO)cc1
mutagenic call (Test System: AMES SALMONELLA TYPHIMURIUM, Strain/Indicator: TA98, Metabolic Activation: HAMSTER, LIVER, S-9, AROCLOR 1254 (5, 10, 20%), Method: STANDARD PLATE): active; positive
mutagenic call (Test System: AMES SALMONELLA TYPHIMURIUM, Strain/Indicator: TA98, Metabolic Activation: RAT, LIVER, S-9, AROCLOR 1254 (20%), Method: STANDARD PLATE): active; positive
mutagenic call (Test System: AMES SALMONELLA TYPHIMURIUM, Strain/Indicator: TA98, Metabolic Activation: RAT, LIVER, S-9, AROCLOR 1254, HAMSTER, LIVER, S-9, AROCLOR 1254, Method: STANDARD PLATE): active; positive
mutagenic call (Test System: AMES SALMONELLA TYPHIMURIUM, Strain/Indicator: TA1538, Metabolic Activation: HAMSTER, LIVER, S-9, AROCLOR 1254 (2.5-20%), Method: STANDARD PLATE): active; positive
mutagenic call (Test System: AMES SALMONELLA TYPHIMURIUM, Strain/Indicator: TA1538, Metabolic Activation: RAT, LIVER, S-9, AROCLOR 1254 (5, 10, 20%), Method: STANDARD PLATE): active; positive
mutagenic call (Test System: AMES SALMONELLA TYPHIMURIUM, Strain/Indicator: TA1538, Metabolic Activation: RAT, LIVER, S-9, AROCLOR 1254, HAMSTER, LIVER, S-9, AROCLOR 1254, Method: STANDARD PLATE): active; positive
mutagenic call (Test System: MOUSE LYMPHOMA, Strain/Indicator: L5178Y (TK+/TK-), Metabolic Activation: RAT, LIVER, S-9, AROCLOR 1254, Method: SUSPENSION/PLATE): active; positive. reevaluation of results: inconclusive
mutagenic call (Test System: Mouse lymphoma, Strain/Indicator: L5178Y (tk+/tk-), Metabolic Activation: None, Method: Suspension/plate): inactive; negative
